Entries after “also recorded” stand apart in the source; their conditions may differ.

The subject of data set [1] is corpus callosum axons of cuprizone-intoxicated mice. As to the kind of experiment: Remyelination of corpus callosum after demyelination induced by cuprizone intoxication. In kind it is in vivo. To be noted: for remyelination of corpus callosum (myelin basic protein staining, oligodendrocytes): 6 weeks of treatment with subcutaneous silastic implants after 12 weeks of cuprizone intoxication; for promyelinating effect in vivo after demyelination induced by cuprizone intoxication (summary statement): male and female animals; for remyelinating effect in testicular feminized mice: mice devoid of functional androgen receptors due to a gene mutation. The source says:
In Figures b, d and f, are shown representative images of immunostaining of mouse corpus callosum with anti-MBP antibody.

For data set [2] the following is noted: mouse, in vivo, sc.
Data set [3] can be described thus: MENT level in plasma of castrated male mice with subcutaneous silastic implants (radioimmunoassay). In kind it is in vivo. To be noted: mean of 8 samples, SD 0.87. The source says: In additional experiments, the level of MENT which was induced in the plasma of castrated male mice based on subcutaneous silastic implants, as determined by radioimmunoassay, and which included a myelin response, was as follows: […]

Data set [4] concerns activated microglial cells in corpus callosum. As to the kind of experiment: Microglial responses and astrogliosis after cuprizone intoxication. To be noted: 9 weeks of treatment after 12 weeks of cuprizone intoxication, castrated males.
Data set [5] has as its system organotypic cultures of cerebellar slices.
Data set [6] deals with oligodendrocyte progenitors. In words: Proliferation and maturation of oligodendrocyte progenitors.
The target of data set [7] is estrogen receptor beta (ERβ) (Homo sapiens, UniProt Q92731). To be noted: reference 16; cited from earlier work.
estrogen receptor beta (ERβ), sequence (Q92731 whole entry, species assumed): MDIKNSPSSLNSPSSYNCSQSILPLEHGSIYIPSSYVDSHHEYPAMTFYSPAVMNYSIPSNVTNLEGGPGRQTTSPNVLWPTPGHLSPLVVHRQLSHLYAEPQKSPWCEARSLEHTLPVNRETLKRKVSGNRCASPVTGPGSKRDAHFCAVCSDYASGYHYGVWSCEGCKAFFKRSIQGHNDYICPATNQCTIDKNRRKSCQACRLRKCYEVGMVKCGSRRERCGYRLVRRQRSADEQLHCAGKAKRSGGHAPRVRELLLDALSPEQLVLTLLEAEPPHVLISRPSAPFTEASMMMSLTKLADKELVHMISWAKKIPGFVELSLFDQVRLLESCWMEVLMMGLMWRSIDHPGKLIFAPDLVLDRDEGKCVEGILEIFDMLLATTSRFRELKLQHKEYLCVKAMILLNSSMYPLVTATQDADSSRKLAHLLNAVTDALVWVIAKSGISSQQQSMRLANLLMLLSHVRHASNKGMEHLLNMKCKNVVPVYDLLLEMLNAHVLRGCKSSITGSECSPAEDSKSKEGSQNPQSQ

In the case of `C[C@]12CCC(=O)C[C@@H]1CC[C@@H]1[C@@H]2CC[C@]2(C)[C@@H](O)CC[C@@H]12` [5α-dihydrotestosterone], in data set [1], the “remyelination of corpus callosum (myelin basic protein staining, oligodendrocytes)” value (“remyelination of corpus callosum” for short) is given as “promotion of remyelination” and the “promyelinating effect in vivo after demyelination induced by cuprizone intoxication (summary statement)” value (“promyelinating effect in vivo” for short) was “mimicked by 5α-dihydrotestosterone”.

Take `C[C@]12CC[C@@H]3c4ccc(O)cc4CC[C@H]3[C@@H]1CC[C@@H]2O` [Estradiol, estradiol]: in data set [2] (male), the “Brain Level” value was 0.36 ± 0.04 ng/g and the “PLASMA LEVEL” value stood at 0.39 ± 0.07 ng/mL. Also, the “levels produced in plasma and brain tissue by the implants” value in data set [2] is “high physiological levels”.

Turning to `C[C@@H]1CC2=CC(=O)CC[C@@H]2[C@H]2CC[C@]3(C)[C@@H](O)CC[C@H]3[C@@H]21` [MENT], the “mean MENT plasma level” value in data set [3] stood at 2.12 ng/mL. Further, in the data set with mouse spinal cord, the “remyelination after lysolecithin-induced demyelination” value is reported as “can be mimicked by MENT”. In data set [1], the “remyelination of corpus callosum” value is recorded as “promotion of remyelination” and the “promyelinating effect in vivo” value was “also observed”.

With `C[C@]12CC[C@H]3[C@@H](CCC4=CC(=O)CC[C@@]43C)[C@@H]1CC[C@@H]2O` [Testosterone, testosterone], the “number of activated microglial cells” value in data set [4] is “return to normal levels; also recorded: significantly decreased”. Besides, in data set [5], the “promyelinating effect in vitro” value is listed as “very strong promyelinating effect”. Further, the “proliferation and maturation of oligodendrocyte progenitors” value in data set [6] was “promotes the proliferation and maturation”. In data set [1], the “remyelination of corpus callosum” value was “Strong remyelination”; the “promyelinating effect in vivo” value is recorded as “very strong promyelinating effect”; the “remyelinating effect in testicular feminized mice” value was “not observed”. In data set [1] (aromatase knockout mice, cuprizone model), the “remyelinating effect in aromatase knockout mice” value is “loses its efficiency; also recorded: strongly reduced; also recorded: diminished”. Moreover, the “remyelinating effect in testicular feminized mice” value in data set [1] (listed as testosterone) is “eliminated”. Also, the “replenishment of corpus callosum fibers by oligodendrocytes” value in data set [1] (silastic implants for 3 to 6 weeks after termination of 12 week cuprizone diet) is recorded as “replenished by oligodendrocytes forming new myelin sheaths”.

On to `C[C@]12CC[C@H](O)C[C@@H]1CC[C@@H]1[C@@H]2CC[C@]2(C)[C@@H](O)CC[C@@H]12` [3βAdiol, 5α-androstane-3β,17β-diol], for which, in data set [7], the “binding to estrogen receptor beta (ERβ)” value is recorded as “strongly binds”.

The values are drawn from patent US9364488B2, “Myelin regeneration with androgens” (priority 2011, dated 2016).
